Assay results reported in patent US10071105B2, “Formulations of deoxycholic acid and salts thereof” (Kythera Biopharmaceuticals, Inc., priority 2009, dated 2018).

Assay: Reverse phase HPLC, degradation products (purity), stability study
Type: physicochemical
Settings: storage two months (eight weeks) at 4° C., 25° C. and 37° C.
Experimental: Reverse phase HPLC was used along with visual observations which were conducted at each time point to monitor any precipitation or cloudiness.
The formulations were incubated at 4° C., 25° C. and 37° C. and analyzed for a) degradation products, b) pH stability and c) formulation clarity.
Reverse phase HPLC was used to visualize degradation products.

For `C[C@H](CCC(=O)[O-])[C@H]1CCC2C3CC[C@@H]4C[C@H](O)CC[C@]4(C)C3C[C@H](O)[C@@]21C.[Na+]` (stereo partly drawn) [sodium deoxycholate, sodium (4R)-4-((3R,5R,10S,12S,13R,17R)-3,12-dihydroxy-10,13-dimethylhexadecahydro-1H-cyclopenta[a]phenanthren-17-yl)pentanoate], the “chemical degradation by reverse phase HPLC” value was “no degradation”.
